Several values for one entry are separate records, joined by “and”; a condition that tells them apart may be missing. Identical values can stand only once. Toxic doses and inconclusive results are not listed. Rule for the calls: active = survival T/C of 150% or more; inactive = T/C below 125% in these data.
Tested on: CD2F1 mice, P388/ADR leukemia ip, median survival T/C
Experiment: NCI In Vivo Anticancer Drug Screen. Data for tumor model P388 Leukemia resistant to Adriamycin; NSC 123127, Developed at Scr 08 (intraperitoneal) in CD2F1 (CDF1) mice
Conditions: endpoint: median survival time, higher = longer survival
Description: The antitumor activity of compounds was measured in mice bearing transplantable tumors. Survival or tumor size were measured and the results are expressed as the measurement made in the treated group (T) divided by the measurement made in the vehicle treated control group (C). The tumor model used in this assay is P388 Leukemia resistant to Adriamycin; NSC 123127, Developed at Scr 08 (intraperitoneal) in CD2F1 (CDF1) mice

[1] = dose: 100.0 mg/kg/injection, schedule: Q01DX005 (ip), vehicle: Klucel (hydroxypropylcellulose) (HPC)
[2] = dose: 200.0 mg/kg/injection, schedule: Q01DX005 (ip), vehicle: Klucel (hydroxypropylcellulose) (HPC)
[3] = dose: 12.5 mg/kg/injection, schedule: Q01DX005 (ip), vehicle: saline with Tween-80
[4] = dose: 1.5 mg/kg/injection, schedule: Q01DX005 (ip), vehicle: saline with Tween-80
[5] = dose: 3.0 mg/kg/injection, schedule: Q01DX005 (ip), vehicle: saline with Tween-80
[6] = dose: 6.0 mg/kg/injection, schedule: Q01DX005 (ip), vehicle: saline with Tween-80

Measured: T/C

[CH3][Sn]([CH3])([Cl])[c]1cc[c]([Sn]([CH3])([CH3])[Cl])cc1
inactive: dose: 0.19 mg/kg/injection, schedule: Q01DX005 (ip), vehicle: suspension in saline 96 % of control | dose: 0.39 mg/kg/injection, schedule: Q01DX005 (ip), vehicle: suspension in saline 105 % of control | dose: 0.78 mg/kg/injection, schedule: Q01DX005 (ip), vehicle: suspension in saline 114 % of control | dose: 1.56 mg/kg/injection, schedule: Q01DX005 (ip), vehicle: suspension in saline 114 % of control

COc1cc(C)c(C2NC(=O)c3ccccc3N2)cc1C (stereo unspecified)
inactive: dose: 50.0 mg/kg/injection, schedule: Q01DX005 (ip), vehicle: Klucel (hydroxypropylcellulose) (HPC) 109 % of control | [1] 116 % of control | [2] 113 % of control | dose: 400.0 mg/kg/injection, schedule: Q01DX005 (ip), vehicle: Klucel (hydroxypropylcellulose) (HPC) 124 % of control
active: dose: 288.0 mg/kg/injection, schedule: Q01DX005 (ip), vehicle: Klucel (hydroxypropylcellulose) (HPC) 158 % of control | dose: 480.0 mg/kg/injection, schedule: Q01DX005 (ip), vehicle: Klucel (hydroxypropylcellulose) (HPC) 153 % of control | dose: 800.0 mg/kg/injection, schedule: Q01DX005 (ip), vehicle: Klucel (hydroxypropylcellulose) (HPC) 155 % of control and 206 % of control | dose: 1333.0 mg/kg/injection, schedule: Q01DX005 (ip), vehicle: Klucel (hydroxypropylcellulose) (HPC) 207 % of control

Cc1c2ccncc2c(C)c2c1[nH]c1ccccc12
inactive: dose: 90.0 mg/kg/injection, schedule: Q04DX002 (ip), vehicle: saline with Tween-80 115 % of control
active: dose: 134.0 mg/kg/injection, schedule: Q04DX002 (ip), vehicle: saline with Tween-80 156 % of control | dose: 200.0 mg/kg/injection, schedule: Q04DX002 (ip), vehicle: saline with Tween-80 168 % of control | dose: 300.0 mg/kg/injection, schedule: Q04DX002 (ip), vehicle: saline with Tween-80 153 % of control

CN(Cc1cnc2nc(N)nc(N)c2n1)c1ccc(C(=O)N[C@@H](CCC(=O)O)C(=O)O)cc1
active: dose: 0.75 mg/kg/injection, schedule: Q01DX005 (ip), vehicle: sodium bicarbonate 155 % of control | dose: 1.5 mg/kg/injection, schedule: Q01DX005 (ip), vehicle: sodium bicarbonate 179 % of control | dose: 3.0 mg/kg/injection, schedule: Q01DX005 (ip), vehicle: sodium bicarbonate 191 % of control and 195 % of control
inactive: dose: 0.38 mg/kg/injection, schedule: Q01DX005 (ip), vehicle: sodium bicarbonate 122 % of control

O=C1CN(CCN2CC(=O)N(CN3CCOCC3)C(=O)C2)CC(=O)N1CN1CCOCC1
inactive: dose: 12.5 mg/kg/injection, schedule: Q01DX005 (ip), vehicle: water 107 % of control | dose: 25.0 mg/kg/injection, schedule: Q01DX005 (ip), vehicle: water 105 % of control | dose: 50.0 mg/kg/injection, schedule: Q01DX005 (ip), vehicle: water 96 % of control | dose: 100.0 mg/kg/injection, schedule: Q01DX005 (ip), vehicle: water 100 % of control

N=C(N)c1ccc(N=NNc2ccc(C(=N)N)cc2)cc1
inactive: [3] 105 % of control | dose: 25.0 mg/kg/injection, schedule: Q01DX005 (ip), vehicle: saline with Tween-80 115 % of control | dose: 50.0 mg/kg/injection, schedule: Q01DX005 (ip), vehicle: saline with Tween-80 117 % of control

O=C(O)c1cc(C(=O)O)c(C(=O)O)cc1C(=O)O.[NH2-].[NH2-].[NH2-].[NH2-].[Pt+2].[Pt+2]
active: dose: 25.0 mg/kg/injection, schedule: Q01DX005 (ip), vehicle: saline 167 % of control | dose: 25.0 mg/kg/injection, schedule: Q01DX005 (ip), vehicle: suspension in saline 150 % of control | dose: 41.67 mg/kg/injection, schedule: Q01DX005 (ip), vehicle: suspension in saline 178 % of control
inactive: dose: 3.12 mg/kg/injection, schedule: Q01DX005 (ip), vehicle: saline 123 % of control

CC[C@@]1(O)C(=O)OCc2c1cc1n(c2=O)Cc2cc3ccccc3nc2-1
active: [4] 161 % of control | dose: 2.1 mg/kg/injection, schedule: Q01DX005 (ip), vehicle: saline with Tween-80 223 % of control | [5] 200 % of control | dose: 3.6 mg/kg/injection, schedule: Q01DX005 (ip), vehicle: saline with Tween-80 222 % of control | [6] 216 % of control | dose: 6.7 mg/kg/injection, schedule: Q04DX002 (ip), vehicle: saline with Tween-80 198 % of control and 232 % of control | dose: 10.0 mg/kg/injection, schedule: Q04DX002 (ip), vehicle: saline with Tween-80 207 % of control and 232 % of control | dose: 15.0 mg/kg/injection, schedule: Q04DX002 (ip), vehicle: saline with Tween-80 215 % of control and 236 % of control

Nc1ccc2c(c1)CN1C(=O)c3ccccc3C1=N2
active: dose: 33.0 mg/kg/injection, schedule: Q01DX009 (ip), vehicle: saline with Tween-80 215 % of control (2×) and 265 % of control | dose: 50.0 mg/kg/injection, schedule: Q01DX009 (ip), vehicle: saline with Tween-80 270 % of control and 278 % of control and 297 % of control | dose: 75.0 mg/kg/injection, schedule: Q01DX009 (ip), vehicle: saline with Tween-80 277 % of control and 297 % of control and 336 % of control
inactive: dose: 75.0 mg/kg/injection, schedule: Q01DX009 (oral), vehicle: saline with Tween-80 102 % of control | dose: 112.0 mg/kg/injection, schedule: Q01DX009 (ip), vehicle: saline with Tween-80 120 % of control | dose: 112.0 mg/kg/injection, schedule: Q01DX009 (oral), vehicle: saline with Tween-80 104 % of control | dose: 169.0 mg/kg/injection, schedule: Q01DX009 (ip), vehicle: saline with Tween-80 121 % of control | dose: 169.0 mg/kg/injection, schedule: Q01DX009 (oral), vehicle: saline with Tween-80 105 % of control | dose: 252.2 mg/kg/injection, schedule: Q01DX009 (oral), vehicle: saline with Tween-80 118 % of control | dose: 378.2 mg/kg/injection, schedule: Q01DX009 (oral), vehicle: saline with Tween-80 124 % of control

NCCCN=c1ccc2c3c1c(O)c1c(O)ccc(=O)c1c3[nH]n2CCNCCO
inactive: dose: 25.0 mg/kg/injection, schedule: Q01DX001 (ip), vehicle: water 107 % of control

CC[C@@]1(O)CC(OC2CC(N3CCOCC3)C(O)C(C)O2)c2c(O)c3c(c(O)c2[C@H]1O)C(=O)c1cccc(O)c1C3=O (stereo partly specified)
active: dose: 3.0 mg/kg/injection, schedule: Q04DX003 (iv), vehicle: saline 160 % of control

Cc1cc(O)c2c(c1O)C(=O)C13C(=C2O)C(=O)C2C(O)C1C1C(O)C3C(=O)C3=C(O)c4c(O)cc(C)c(O)c4C(=O)C321 (stereo unspecified)
inactive: dose: 0.75 mg/kg/injection, schedule: Q01DX005 (ip), vehicle: saline with Tween-80 101 % of control | [4] 117 % of control | [5] 122 % of control | [6] 123 % of control

CO[C@@]12[C@@H]3N[C@@H]3CN1C1=C(C(=O)C(N3CCCC3)=C(C)C1=O)[C@@H]2COC(N)=O
inactive: dose: 3.75 mg/kg/injection, schedule: Q01DX005 (ip), vehicle: saline with Tween-80 122 % of control | dose: 10.4 mg/kg/injection, schedule: Q01DX005 (ip), vehicle: saline with Tween-80 122 % of control | [3] 117 % of control and 120 % of control | dose: 17.4 mg/kg/injection, schedule: Q01DX005 (ip), vehicle: saline with Tween-80 113 % of control

[N-]=[N+]=CC(=O)CCC(NC(=O)OCc1ccccc1)C(=O)OCc1ccccc1 (stereo unspecified)
active: [1] 166 % of control | [2] 165 % of control | dose: 278.0 mg/kg/injection, schedule: Q01DX005 (ip), vehicle: Klucel (hydroxypropylcellulose) (HPC) 155 % of control
inactive: dose: 12.5 mg/kg/injection, schedule: Q01DX005 (ip), vehicle: Klucel (hydroxypropylcellulose) (HPC) 115 % of control | dose: 25.0 mg/kg/injection, schedule: Q01DX005 (ip), vehicle: Klucel (hydroxypropylcellulose) (HPC) 117 % of control | dose: 36.0 mg/kg/injection, schedule: Q01DX005 (ip), vehicle: Klucel (hydroxypropylcellulose) (HPC) 100 % of control | dose: 60.0 mg/kg/injection, schedule: Q01DX005 (ip), vehicle: Klucel (hydroxypropylcellulose) (HPC) 112 % of control

COc1cc(NCc2ccc3nc(N)nc(N)c3c2C)cc(OC)c1OC
active: dose: 40.0 mg/kg/injection, schedule: Q01DX009 (ip), vehicle: distilled water + Tween-80 156 % of control | dose: 60.0 mg/kg/injection, schedule: Q01DX009 (ip), vehicle: distilled water + Tween-80 184 % of control
inactive: dose: 18.0 mg/kg/injection, schedule: Q01DX009 (ip), vehicle: distilled water + Tween-80 112 % of control | dose: 27.0 mg/kg/injection, schedule: Q01DX009 (ip), vehicle: distilled water + Tween-80 118 % of control | dose: 110.0 mg/kg/injection, schedule: Q01DX009 (ip), vehicle: distilled water + Tween-80 94 % of control
